Results taken from US7205382B2, “Peptides, the production and use thereof for binding immunoglobulins” (Fresenius Medical Care Affina GmbH, priority 2000, dated 2007).
Bridge positions count the residues as written; N and C are the ends. Square brackets hold non-standard residues; d marks the D form. Ends that are not written are not given here. cellulose = not defined here; βAla = NCCC(=O)O

What was measured:
Assay type in all cases: binding
Design in all cases: key: No binding of immunoglobulin for the defined peptide variant, detection negative: 0; Binding of immunoglobulin for the defined peptide variant, detection positive: +
serum albumin = assay: Cellulose-immobilized 13-mer peptide variants incubated with serum albumin (negative control), anti-human IgG-AP detection; conditions: blocking buffer without addition, 3 h room temperature
How it was run: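 Spot membrane, (βA)(βA) spacer; T-TBS pH 8.0 wash, block 5% saccharose/4% BSA. 3 h RT with IgG-Fc 1 μg/ml, serum 1:10,000, or block buffer only (specificity control). 3× wash, AP-anti-human IgG 1.2 μg/ml, NBT/BCIP in pH 9.5 buffer.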

[1] = test system: immunoglobulins in human plasma; assay: Cellulose-immobilized 13-mer peptide variants incubated with human plasma, anti-human IgG-AP detection; conditions: human plasma as sample, diluted 1:10,000 in blocking buffer, 3 h room temperature
How it was run: (§1)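 Read-out was colorimetric NBT/BCIP staining (developing buffer pH 9.5) after alkaline phosphatase-conjugated anti-human IgG at 1.2 μg/ml. Before this, the immobilized peptides had been incubated 3 h at room temperature with 1 μg/ml IgG-Fc, 1:10,000 diluted serum, or albumin-containing blocking buffer without addition.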

human IgG-Fc = assay: Cellulose-immobilized 13-mer peptide variants incubated with human IgG-Fc, anti-human IgG-AP detection; conditions: IgG-Fc 1 μg/ml in blocking buffer, 3 h room temperature
How it was run: as §1

Substance	Result for incubation with serum albumin (immunoglobulin binding detection) (serum albumin)	Result for incubation with human plasma (immunoglobulin binding detection) [1]	Result for incubation with human IgG-Fc (immunoglobulin binding detection) (human IgG-Fc)
01N: cellulose-bound 13-mer variant NCAWHLGELVWCT-(βA)(βA) (NCAWHLGELVWCT-{βAla-βAla-cellulose}; disulfide 2-12 (inferred); reading uncertain; also: printed as NCAWHLGELVWCT-(βA)(βA))	0	0	+
05S: cellulose-bound 13-mer variant DCAWSLGELVWCT-(βA)(βA) (disulfide 2-12 (inferred); not fully specified (N-terminus, C-terminus); printed as DCAWSLGELVWCT-(βA)(βA); also: cellulose-bound)	0	0	0
02V: cellulose-bound 13-mer variant DVAWHLGELVWCT-(βA)(βA) (DVAWHLGELVWCT[βAla][βAla]; not fully specified; printed as DVAWHLGELVWCT-(βA)(βA); also: cellulose-bound)	0	0	0
11Q: cellulose-bound 13-mer variant DCAWHLGELVQCT-(βA)(βA)	0	0	0
04R: cellulose-bound 13-mer variant DCARHLGELVWCT-(βA)(βA) (disulfide 2-12 (inferred); not fully specified (N-terminus, C-terminus); printed as DCARHLGELVWCT-(βA)(βA); also: cellulose-bound)	0	+	+

Continued, values first:

Result for incubation with serum albumin (immunoglobulin binding detection) (serum albumin)	Result for incubation with human plasma (immunoglobulin binding detection) [1]	Result for incubation with human IgG-Fc (immunoglobulin binding detection) (human IgG-Fc)	Substance
0	0	0	03I: cellulose-bound 13-mer variant DCIWHLGELVWCT-(βA)(βA) (DCIWHLGELVWCT-{βAla-βAla-cellulose}; disulfide 2-12 (inferred); reading uncertain; also: printed as DCIWHLGELVWCT-(βA)(βA))
0	0	0	09E: cellulose-bound 13-mer variant DCAWHLGEEVWCT-(βA)(βA) (DCAWHLGEEVWCT-{βAla-βAla-cellulose}; disulfide 2-12 (inferred); reading uncertain; also: printed as DCAWHLGEEVWCT-(βA)(βA))
0	0	0	12E: cellulose-bound 13-mer variant DCAWHLGELVWET-(βA)(βA) (DCAWHLGELVWET-{βAla-βAla-cellulose}; not fully specified; printed as DCAWHLGELVWET-(βA)(βA); reading uncertain)
0	+	+	04Y: cellulose-bound 13-mer variant DCAYHLGELVWCT-(βA)(βA) (disulfide 2-12 (inferred); not fully specified (N-terminus, C-terminus); printed as DCAYHLGELVWCT-(βA)(βA); also: cellulose-bound)
